Assay results reported in PubChem BioAssay (NCI).
“And” between values parts separate entries of the source, which are not always exact repeats. Identical values can stand only once.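 1) Cells in 96-well plates. 2) Compound, 48 h, 5 concentrations. 3) Linear interpolation between surrounding doses. 4) Unreached endpoint = highest concentration. The concentration for 50% growth inhibition is given as GI50. TGI: concentration producing complete growth inhibition.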

Assays:
Experiment in all cases: NCI-60 cell line screen, 48 h
ACHN renal = tested on: ACHN renal
COLO 205 colon = tested on: COLO 205 colon
HOP-62 NSCLC = tested on: HOP-62 NSCLC
NCI-H522 lung = tested on: NCI-H522 lung
NCI/ADR-RES ovarian = tested on: NCI/ADR-RES ovarian
SF-268 CNS = tested on: SF-268 CNS
SF-539 CNS = tested on: SF-539 CNS
SN12C renal = tested on: SN12C renal
SNB-75 CNS = tested on: SNB-75 CNS
UACC-257 melanoma = tested on: UACC-257 melanoma

SMILES | GI50 (ACHN renal) | TGI (ACHN renal) | GI50 (COLO 205 colon) | TGI (COLO 205 colon) | TGI (HOP-62 NSCLC) | GI50 (NCI-H522 lung) | TGI (NCI-H522 lung) | GI50 (NCI/ADR-RES ovarian) | TGI (NCI/ADR-RES ovarian) | TGI (SF-268 CNS) | GI50 (SF-539 CNS) | TGI (SF-539 CNS) | TGI (SN12C renal) | GI50 (SNB-75 CNS) | TGI (SNB-75 CNS) | GI50 (UACC-257 melanoma) | TGI (UACC-257 melanoma) | GI50 (HOP-62 NSCLC) | GI50 (SF-268 CNS) | GI50 (SN12C renal)
Nc1nc(Cl)c(N=Nc2ccc(Cl)cc2)c(NCC2(CO)CC(OCc3ccccc3)C2)n1 (stereo unspecified) | 2600 nM | 20.3 µM and 3.55 µM and 3.47 µM | 27.9 µM and 33.7 µM and 6.17 µM | > 100 µM and 25.6 µM | 49.4 µM and > 100 µM and 22.5 µM | 2090 nM | 4.26 µM | 6.55 µM and 9.08 µM and 3.98 µM | 77.8 µM and > 100 µM and 16.2 µM | 61.1 µM and > 100 µM and > 61 µM | 13.7 µM and > 100 µM and 12.4 µM | 43.7 µM and > 100 µM and 33.1 µM | 16.9 µM and > 100 µM and 22 µM | 4.55 µM | 26.8 µM and > 29.1 µM and 25.5 µM | 32.5 µM and > 95.4 µM and 15.6 µM | > 100 µM and 46 µM |  |  | 
COc1ccc(Cn2cc3c(c2-c2ccc(O)cc2)CCc2cnoc2-3)cc1 | 956 nM | 19.5 µM | 0.577 µM | 2.01 µM | 18.4 µM | 82.2 nM | 0.596 µM | 0.19 µM | 0.946 µM | 18.5 µM | 0.273 µM | 3.33 µM | 23.2 µM | 0.221 µM | 0.676 µM | 13.7 µM | 30.6 µM | 0.49 µM | 0.784 µM | 1.16 µM
CCN(CC)CCCNc1nc2ccccc2c2c(=O)c3cc(Cl)ccc3sc12 | 1630 nM | 3.22 µM | 2.33 µM | 5.58 µM | 15.8 µM | 2020 nM | 4.41 µM | 2.04 µM | 4.99 µM | 14.3 µM | 1.73 µM | 3.35 µM | 15.4 µM | 4.36 µM | 18.3 µM | 5.43 µM | 22.5 µM | 3.05 µM | 3.26 µM | 3.68 µM
CC(C)=CC(O)C/C(C)=C/CC/C(C)=C/CCC1(C)C(CCCO)/C(=C(/C)C=O)CCC1(C)O (stereo unspecified) |  | 43.6 µM |  | > 100 µM | 88.6 µM |  | > 100 µM |  | > 100 µM | > 100 µM |  | 52 µM | 76.2 µM |  | > 100 µM |  | > 100 µM |  |  | 
O=C1/C(=C/c2ccc([N+](=O)[O-])o2)Oc2ccccc21 | 895 nM | 2.17 µM | 1.35 µM | 2.91 µM | 6.42 µM | 384 nM | 1.45 µM | 3.08 µM | 11.7 µM | 5.86 µM | 1.87 µM | 4.14 µM | 5.53 µM | 1.8 µM | 5.77 µM | 1.68 µM | 3.5 µM | 2.22 µM | 2.19 µM | 2.17 µM
Cc1ccc(NSc2ccccc2[N+](=O)[O-])cc1 | 2300 nM | 23.4 µM | 0.149 µM | 3.44 µM | 18.8 µM | 435 nM | 13.4 µM | 0.148 µM | 14.3 µM | 19.7 µM | 0.847 µM | 5.11 µM | 21.1 µM | 0.557 µM | 9.32 µM | 17.4 µM | 36.7 µM | 0.283 µM | 1.15 µM | 1.3 µM
O=C1Nc2ccccc2/C1=C/c1ccccc1 |  | > 100 µM |  | 30.9 µM | 38.5 µM |  | 33.9 µM |  | 70.6 µM | 35.1 µM |  | 42.6 µM | 28.5 µM |  | 33.8 µM |  | 29 µM |  |  | 
C=C(C)[C@@H]1CC[C@]2(C(=O)O)CC[C@]3(C)[C@H](CC[C@@H]4[C@@]5(C)C[C@@H](CC#Cc6ccc(Br)cc6)C(=O)C(C)(C)[C@@H]5CC[C@]43C)[C@@H]12 | 13500 nM | > 100 µM | 18.2 µM | > 100 µM | 38.4 µM | 2950 nM | 75 µM | 62.6 µM | > 100 µM | > 100 µM | 22.5 µM | > 100 µM | 9.25 µM | 13.5 µM | 34.6 µM | > 100 µM | > 100 µM | 12.4 µM | 6.23 µM | 2.99 µM
COc1cc2c3c(n(CCCNC(=O)OCC4c5ccccc5-c5ccccc54)c(=O)c2cc1OC)-c1cc2c(cc1C3=O)OCO2 | 376 nM | 6.25 µM | > 100 µM | > 100 µM | > 74 µM | 34900 nM | > 100 µM | > 100 µM | > 100 µM | > 72.4 µM | 7.25 µM | 31.2 µM | > 100 µM | 34.8 µM | > 86.4 µM | > 100 µM | > 100 µM | 13.7 µM | 16.6 µM | > 100 µM
O[C@@H]1CCCN1Cc1cc2cc3c(cc2c2cc(OCc4ccccc4)ccc12)OCO3 | 8370 nM | 22 µM | 1.7 µM | 3.46 µM | 18.9 µM | 6080 nM | 21.5 µM | 6.12 µM | 21.7 µM | 20.1 µM | 3.19 µM | 10.4 µM | 20.3 µM | 5.92 µM | 19.7 µM | 2.17 µM | 4.37 µM | 5.78 µM | 4.78 µM | 3.6 µM
COc1cc(OC)c2cc(C(=O)O)c(=O)oc2c1 | > 100000 nM | > 100 µM | > 100 µM | > 100 µM | > 100 µM | > 71500 nM | > 100 µM | > 100 µM | > 100 µM | > 100 µM | > 96.2 µM | > 100 µM | > 100 µM | > 100 µM | > 100 µM | > 85.9 µM | > 100 µM | > 100 µM | > 100 µM | > 100 µM
Cc1cc(O)ccc1O | 15700 nM | 29.1 µM | 23.7 µM | 47.6 µM | > 100 µM | 3580 nM | 18.8 µM | 23.5 µM | > 100 µM | > 100 µM | 15.3 µM | 29.6 µM | 27.8 µM | 24.1 µM | > 100 µM | 43.1 µM | > 100 µM | 34.8 µM | 35.3 µM | 14.4 µM
C/C1=C\CC[C@@]2(C)O[C@@H]2C[C@@H]2[C@H](C/C(C)=C/CC1)OC(=O)C21CCN=N1 (stereo partly specified) | > 100000 nM | 75 µM and > 100 µM | > 100 µM | > 100 µM | 75 µM and > 100 µM |  | 75 µM | > 100 µM | > 100 µM | > 100 µM | > 100 µM | > 100 µM | 75 µM and > 100 µM | > 100 µM | 75 µM and > 100 µM | > 100 µM | > 100 µM | > 100 µM | > 100 µM | > 100 µM
